Entries after “also recorded” stand apart in the source; their conditions may differ.
What was measured:
[1] = test system: EAE; settings: mouse, in vivo; cited from earlier work
[2] = test system: splenocytes; assay: Splenocyte staining and FACS analysis after pulse dose; format: in vivo, mouse
Method: For flow cytometric analysis, splenocytes were dissociated into ice-cold Hank's balanced salt solution with HEPES buffer, and RBC were depleted. Duplicate samples (10^6 cells/sample) were stained (30-45 min on ice) with optimal amounts of the mAb conjugates in staining buffer (PBS pH 7.3 with 5% heat-inactivated FBS and 0.1% NaN3). Reference samples stained with single-color mAb served as controls to select fluorescence gates and flow cytometer compensation. The fluorescent mAb conjugates used for this analysis were FITC-labeled mAb to CD4 (clone L3T4) and APC-labeled mAb to CD11b (clone Macla) from Southern Biotechnology, and PE-labeled mAb to CD8 (clone alpha) and biotin-labeled mAb to CD45R (B220) from Invitrogen. PerCP-Cy5.5 was from BD/Pharmingan. Stained samples were analyzed on a FACScalibur™ using CELLQuest™ software (BD Biosciences, Franklin Lakes, N.J.).

[3] = test system: MS; settings: daily calcitriol treatments, cited from earlier work
[4] = splenocytes 14 days after a 175 ng pulse dose, no significant differences from normal control mice

In the case of `C=C1/C(=C\C=C2/CCC[C@]3(C)[C@@H]([C@H](C)CCCC(C)(C)O)CC[C@@H]23)C[C@@H](O)C[C@@H]1O` [1,25-(OH)2D3, 1,25-dihydroxy vitamin D3], the EAE disease induction [1] is given as “strongly inhibited”, the EAE progression [1] is given as “prevented progression” and the “established EAE disease” value [1] is given as “reversed established disease”. The “numbers of splenocytes recovered” value ([2]; 14 days after a 175 ng pulse dose, no significant differences from normal control mice) was 43±9 million cells, the “depletion of splenic lymphocytes and monocytes / immunodeficient state” value ([2]; B10.PL mice with EAE, 175 ng pulse dose, two weeks post treatment) was “did deplete; also recorded: did not result in an immunodeficient state” and the “proportion of B220+ B lymphocytes” value [2, 4] was 63±3%. The “proportion of CD4+ T lymphocytes” value [2, 4] was 18±1%, the “proportion of CD8+ T lymphocytes” value [2, 4] was 11±1% and the “proportion of CD11b+ monocytes” value [2, 4] was 18±2%. For the same molecule, the MS progression [3] was “completely inhibited”, the “patients who withdrew from the trial with symptomatic hypercalcemia” value [3] was 2 of the 15 and the “MS relapse rate (average)” value ([3]; decreased from 1.0/yr) was 0.2 /yr.

Source: patent US20090221538A1, “METHODS OF TREATING MULTIPLE SCLEROSIS BY ADMINISTERING PULSE DOSE CALCITRIOL” (priority 2008, published 2009)
